Experimental data: PMC3073003, “Peptide-Modified Surfaces for Enzyme Immobilization” (PLoS ONE, 2011)
Ends that are not written are not given here.

Experiments:
[1] = molecular target: T1, β-galactosidase (β-Gal) (Escherichia coli, UniProt P00722); format: binding, E. coli; set-up: biotin (chemical label by Sulfo-NHS-biotin on amines, about two per enzyme); purchased Sigma (St. Louis, MO); details: for Binding affinity (Norm.): β-Gal bound to surface-modified microwells, 25 nM biotin-labeled β-Gal, ELISA, normalized to amine surface 8
Procedure: (§1) Peptides were conjugated to aminated microwell surfaces through the specific reaction between C-terminal cysteines and the maleimide-activated surfaces, as shown in Figure 1a. […] The microwell plate was then briefly washed with pure water three times. […] The reaction was incubated for 4 hours at room temperature, in the dark. After the conjugation reaction was complete, the microwells were washed for 5 minutes in 1× TBST, three times, followed by three washes in water. To immobilize the enzyme on peptide-modified surfaces, 30 µL of 25 nM biotin-labeled β-Gal was incubated in the peptide-modified microwells for two hours in 10 mM phosphate buffer, pH 7.3 with 100 µM MgCl2 and 0.05% Tween 20 (v/v%), at room temperature. The microwells were washed for 5 minutes in 1× TBST, three times, followed by three washes in phosphate buffer. […] Figures S8–10 in File S1 show the detailed optimization procedures for peptide-modified surfaces.
(§2) First, 30 µL of 2 mg/mL BS^3 prepared in 1× PBS, pH 7.4 was incubated with the aminated microwells for half an hour. Then, the microwells were briefly washed with nanopure water, three times, to remove unreacted BS^3 molecules. Finally, 30 µL of biotin-labeled β-Gal was incubated with the microwells for one hour, which were then washed three times in 1× TBST, followed by three washes in phosphate buffer.
(§3) The activity assay of surface-bound β-Gal was performed on a SpectraMax M5 96-well plate reader (Molecular Device, Sunnyvale, CA) by adding 100 µL of 100 µM RBG into the wells. The relative amount of surface-bound β-Gal was measured using an enzyme linked immunosorbant assay (ELISA). β-Gal was first labeled with biotin. Alkaline phosphatase-conjugated strepavidin (0.4 mg/ml) was diluted at 1∶1000 in 1× PBS, 0.05% (v/v) Tween 20. Next, 30 µL of streptavidin solution was added to the β-Gal-bound wells and incubated for one hour at room temperature. The streptavidin solution was then removed and the plate was washed three times with TBST buffer and three times with TBS buffer. Then, 200 µL of 1 mM PNPP was added to each well. The alkaline phosphatase activity was subsequently measured by reading the absorbance increase at 405 nm on the M5 plate reader. The β-Gal binding level was determined from the activity of alkaline phosphatase-conjugated strepavidin bound to the wells.

[2] = molecular target: T1, β-galactosidase (β-Gal); format: biochemical, E. coli; set-up: biotin (chemical label by Sulfo-NHS-biotin on amines, about two per enzyme); purchased Sigma (St. Louis, MO); details: for Specific activity (Norm.): total bound enzyme activity divided by total binding intensity; for Specific activity (Norm.) / Activity (Norm.): normalized to amine surface 8; for Activity (Norm.): β-Gal immobilized on surface-modified microwells, 25°C
Procedure: Figure 1 Enzyme immobilization on peptide-modified surfaces. (a) The overall process for conjugating peptides to aminated microwells through specific reactions between C-terminal cysteines and maleimide-activated surfaces. (b) Activity of β-Gal immobilized on different surfaces. 25 nM β-Gal is first incubated with modified microwells for one hour and then enzyme activity is measured at 25°C as a function of time using 100 µM Resorufin β-D-galactopyranoside as the substrate. YHNN, QYHH, RVFK, PASM and EFSN represent β-Gal bound to various peptide-modified surfaces (see text). […] AMINE represents enzyme bound noncovalently to an aminated surface. […] Each subunit is labeled with a unique color showing the symmetry of the β-Gal structure. […] The substrate-binding sites of β-Gal are circled with right color (Glu461, Met502, Tyr503 and Glu537) according to reference 16.
as §1, §2, §3

[3] = molecular target: T1, β-galactosidase (β-Gal); format: binding, E. coli; set-up: biotin (chemical label by Sulfo-NHS-biotin on amines, about two per enzyme); purchased Sigma (St. Louis, MO); details: for Enzyme binding (Norm.): microarray of 10,000 peptides, selection described in reference [13]
Text: (§4) Peptide microarrays containing 132, 20-mer single-point variants of the YHNN peptide were generated using our established, in-house printing method. […] Synthesized peptides (70% purity) were purchased from Sigma. The last three carboxy-terminal positions of each peptide constituted a glycine-serine-cysteine (GSC) linker, used for conjugating the peptides to amino-silane surfaces through the C-terminal cysteine via a maleimide linker, Sulfo-SMCC (Pierce, Rockford, IL). A Telechem Nanoprint60 was used to spot approximately 500 pL of 1 mg/mL peptide prepared in 1× PBS for each feature on glass slides with 48 Telechem series SMP2 style 946 titanium pins.
(§5) Enzyme assays on the microarrays were performed as described in the previous work. […] The array was incubated with a solution containing 10 nM Alexa™ 647- labeled β-Gal for two hours, allowing the enzyme to bind with peptides on the array surface. After washing off unbound enzymes, a fluorescent substrate analogue (FDG) was mixed with a 5% PVA solution and spin-coated onto the array surface for monitor the enzyme activity. The FDG molecules (substrate) in the PVA layer were converted to fluorescein (product), by the active enzymes bound to specific peptides on the array surface. The fluorescein molecules remained localized because of the PVA viscosity. Both the relative binding level of Alexa™ 647-labeled enzyme and the relative amount of fluorescein produced during the incubation period were determined by dual color scanning. Each array experiment was repeated at least three times under the same conditions for statistical analysis.

[4] = molecular target: T1, β-galactosidase (β-Gal); format: biochemical, E. coli; set-up: biotin (chemical label by Sulfo-NHS-biotin on amines, about two per enzyme); purchased Sigma (St. Louis, MO); details: for Enzyme activity (Norm.) / Surface specific activity (Norm.): microarray of 10,000 peptides; for Enzyme activity (Norm.): selection described in reference [13]; for Surface specific activity (Norm.): total bound enzyme activity divided by total binding intensity
Text: as §4, §5

[5] = molecular target: T1, β-galactosidase (β-Gal); assay: biochemical; format: binding, E. coli; set-up: biotin (chemical label by Sulfo-NHS-biotin on amines, about two per enzyme); purchased Sigma (St. Louis, MO)
Procedure: as §3

[6] = molecular target: T1, β-galactosidase (β-Gal); format: biochemical, E. coli; set-up: biotin (chemical label by Sulfo-NHS-biotin on amines, about two per enzyme); purchased Sigma (St. Louis, MO); details: read-out: apparent Km of β-Gal; peptide-modified iodoacetyl resin or free enzyme, ~150 pM enzyme, RBG 3-400 µM, 25 °C
Procedure: The determination of the enzyme kinetic constants (KM and kcat) of immobilized β-Gal was performed on peptide-modified iodoacetyl polyacrylamide resin (UltraLink, Pierce, 50–80 µm diameter). To modify the bead surface with peptide, peptide solutions were incubated with iodoacetyl resin for one hour in 50 mM Tris buffer, 5 mM EDTA, pH 8.5. The unreacted iodacetyl groups were then capped with 50 mM L-cysteine. The amount of peptide immobilized on a bead surface was determined by comparing the peptide concentration of the unbound fraction (the remaining free peptide concentration after binding to the surface) to the starting concentration through absorbance changes at 280 nm. β-Gal was captured on the peptide-modified beads using the same protocol which immobilized the enzyme in the microwells, above. The amount of bead-immobilized β-Gal was measured by comparing the protein concentration of the unbound fraction to the starting protein concentration, determined at 280 nm. KM and Vmax (and thus kcat, using the total enzyme concentration) of β-Gal immobilized on peptide-modified beads were determined by fitting the activity vs. substrate concentration curves in the GraphPad program using the fitting equation of “Y = Vmax*X/(Km+X)”.
Colored curves: Curve fit determining the Michaelis constants of β-Gal immobilized […]
The enzyme activities are measured as a function of the concentration of […]

[7] = molecular target: T1, β-galactosidase (β-Gal)
Procedure: Figure 2 Point-variant screening of a lead peptide, YHNN. β-Gal was bound to a microarray containing 132 YHNN variants and its activity was measured. (a) The activity of bound β-Gal on microarrays as a function of the amount of enzyme bound to a particular variant feature at room temperature. […] All data is normalized to the binding and activity values for the lead peptide, YHNN. (b) Thermal-stability assay. β-Gal was bound to the microarray containing YHNN variants as in (a) at room temperature, followed by incubation in phosphate buffer at 55°C for one hour. Enzyme activity was then assayed at room temperature. […] (c) pH activity range assay. YHNN variant microarrays were bound to β-Gal as in (a) and incubated at room temperature in buffers with pHs ranging from 6 to 9 for one hour and then assayed for activity at the pH of incubation.
The library of single-point variants was also screened for enhanced thermal or pH stability of immobilized β-Gal. For thermal stability screening, enzyme was bound to microarrays containing the 132 single-point variants, at room temperature, and then the arrays were incubated at 55°C for one hour and assayed for activity at room temperature.

[8] = peptide conjugated to aminated microwell
[9] = peptide-modified aminated microwell
[10] = microarray of 132 single-point variants, room temperature

T1 sequence (P00722 2-1024): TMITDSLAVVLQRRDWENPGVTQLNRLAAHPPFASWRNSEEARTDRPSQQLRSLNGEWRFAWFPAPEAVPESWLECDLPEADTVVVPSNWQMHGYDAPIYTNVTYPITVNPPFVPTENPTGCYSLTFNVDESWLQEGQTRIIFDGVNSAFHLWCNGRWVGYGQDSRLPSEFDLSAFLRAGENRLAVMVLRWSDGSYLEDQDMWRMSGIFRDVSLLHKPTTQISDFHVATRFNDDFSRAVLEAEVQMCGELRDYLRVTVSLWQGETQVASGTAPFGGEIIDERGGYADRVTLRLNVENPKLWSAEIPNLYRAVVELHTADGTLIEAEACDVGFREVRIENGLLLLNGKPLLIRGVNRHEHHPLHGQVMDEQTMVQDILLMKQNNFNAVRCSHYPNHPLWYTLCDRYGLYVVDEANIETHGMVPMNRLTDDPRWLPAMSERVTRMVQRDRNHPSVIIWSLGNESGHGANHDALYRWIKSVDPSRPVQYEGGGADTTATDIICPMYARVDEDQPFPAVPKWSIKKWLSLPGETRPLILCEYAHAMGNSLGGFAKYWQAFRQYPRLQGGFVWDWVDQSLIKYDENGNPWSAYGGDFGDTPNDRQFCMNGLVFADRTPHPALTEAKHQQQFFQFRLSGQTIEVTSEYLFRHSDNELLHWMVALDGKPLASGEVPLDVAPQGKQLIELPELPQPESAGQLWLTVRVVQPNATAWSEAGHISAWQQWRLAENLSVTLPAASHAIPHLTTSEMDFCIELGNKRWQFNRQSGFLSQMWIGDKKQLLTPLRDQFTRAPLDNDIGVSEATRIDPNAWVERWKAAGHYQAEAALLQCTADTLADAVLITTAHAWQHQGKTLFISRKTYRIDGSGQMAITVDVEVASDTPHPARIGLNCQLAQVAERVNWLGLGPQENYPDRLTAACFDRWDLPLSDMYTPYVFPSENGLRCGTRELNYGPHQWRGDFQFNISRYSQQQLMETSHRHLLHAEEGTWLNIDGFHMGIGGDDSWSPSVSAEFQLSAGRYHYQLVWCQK

EFSNPTAQVFPDFWMSDGSC
Binding affinity (Norm.) [1]: 0.1±0.01 | Specific activity (Norm.) [2]: 0.4±0.1 | Activity (Norm.) ([2]; 100 µM RBG): 0.05±0.01 | Enzyme binding (Norm.) [3]: 0.4 | Enzyme activity (Norm.) [4]: 0.7

PASMFSYFKKQGYYYKLGSC
Binding affinity (Norm.) [1]: 0.5±0.1 | Specific activity (Norm.) [2]: 0.5±0.1 | Activity (Norm.) ([2]; 100 µM RBG): 0.3±0.06 | Enzyme binding (Norm.) [3]: 63.9 | Enzyme activity (Norm.) [4]: 2.3 | Surface specific activity (Norm.) [4]: 0.16

QYHHFMNLKRQGRAQAYGSC [QYHH]
Kd [5]: ~4 nM | Km [6]: 250 µM

RVFKRYKRWLHVSRYYFGSC
Binding affinity (Norm.) [1]: 0.9±0.05 | Specific activity (Norm.) [2]: 0.1±0.01 | Activity (Norm.) ([2]; 100 µM RBG): 0.1±0.01 | Enzyme binding (Norm.) [3]: 50.3 | Enzyme activity (Norm.) [4]: 0.9 | Surface specific activity (Norm.) [4]: 0.08

YHNNPGFRVMQANKLHHGSC [Peptide Q12A]
specific activity increase of bound β-Gal compared to YHNN lead peptide at pH 6 ([7]; microarray incubated one hour at pH 6 and assayed at that pH): 4.1 fold | specific activity increase of bound β-Gal compared to YHNN lead peptide at pH 9 ([7]; microarray incubated one hour at pH 9 and assayed at that pH): 2.8 fold

YHNNPGFRVMQQNKLHHGSC [YHNN]
Kd [5]: ~5 nM | Km [6]: ~240 µM

YHNNPGFRYMQQNKLHHGSC [Peptide V9Y]
binding of immobilized β-Gal relative to YHNN [1, 8]: ~2 fold | specific activity of immobilized β-Gal relative to YHNN [2, 8]: ~2 fold | total bound enzymatic activity relative to the NHS surface [2, 9]: ~12 fold | total bound enzymatic activity relative to the amine surface [2, 9]: more than 5 fold | total activity of the bound enzyme relative to YHNN ([2]; peptide-modified aminated microwell, 100 µM RBG): ~5 fold | total bound enzyme activity compared with YHNN ([2]; single-point variants on aminated microwell surfaces): improvement | binding of β-Gal relative to YHNN lead peptide [3, 10]: 1.5 fold | specific activity of bound β-Gal relative to YHNN lead peptide [4, 10]: ~3 fold
